The subject of assay [1] is KRAS G12V mutant NCI-H727 cells. Briefly: Proliferation inhibition of NCI-H727 cells, 3D CellTiter-Glo assay (Method B). Type of assay: cell-based, human. As to conditions: Method B, 3D culture with 0.65% methylcellulose, 5 days, CTG, read-out: NCI-H727 IC50/nM. In a few lines: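 Cells grown in 3D medium (RPMI-1640, 10% FBS, 0.65% methylcellulose) overnight, then treated 5 days at 37 °C, 5% CO2 with 9 threefold dilutions from 10 µM top working concentration, duplicate wells. CellTiter-Glo luminescence read; IC50 (nM) fitted by dose-response-inhibition equation.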

For assay [2], the system named is KRAS G12D mutant AGS cells. Briefly: Proliferation inhibition of AGS cells, CellTiter-Glo assay. Format: cell-based, human. In a few lines:
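AGS cells at 1500 cells/well in F12K + 10% FBS were exposed for 3 days at 37°C to nine 3-fold dilutions from 10 µM top concentration, in duplicate. Viability read by CellTiter-Glo luminescence; IC50 (nM) from dose-response-inhibition fitting.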
A general note: In ATP-based viability assays light output follows the ATP content of the culture.

The test system of assay [3] is KRAS G12S mutant A549 cells. Briefly: Proliferation inhibition of A549 cells, 3D CellTiter-Glo assay. Format: cell-based. The conditions noted are these: Homo sapiens, A549, 120 h, read-out: A549 IC50/nM. Here is the method:
A549 cells (Nanjing Kebai Biotechnology Co., Ltd., catalog number CBP60084, adherent, culture medium (F12K Nutrient Mixture+10%FBS (GIBCO, Cat#10091-148) at 37°C, 5%CO2, and 95% humidity.
3D Cell Viability Assay: Cells in the logarithmic growth phase were harvested and counted using a platelet counter. Cell viability was assessed using the trypan blue exclusion method to ensure a viability of over 90%. The 3D cell culture medium was prepared by adding 1% MC (methylcellulose, Sigma, Cat#M0512) F-12K medium and 10% FBS. The cell concentration was adjusted to approximately 7407 cells/mL using the 3D medium, and the methylcellulose (MC) content was set to 0.65%. Then, 135 µL of cell suspension was added to each 96-well clear, flat-bottomed, black-walled plate (Greiner, Cat#655096). The cells in the 96-well plates were cultured overnight at 37°C with 5% CO2.
Drug preparation for IC50 assay: A 10-fold drug solution was prepared using culture medium. […] of the drug solution was added to each well of a 96-well plate seeded with cells to achieve a working concentration of up to 10 µM, with a 3× dilution, and 9 concentrations. 2 replicate wells for each drug concentration were set. The cells in the drug-treated 96-well plates were cultured at 37°C and 5% CO^2 for additional5 days, then CTG assay (CellTiter-Glo® Luminescent Cell Viability Assay (Promega, Cat#G7573)) were performed.
The cell plate was equilibrated to room temperature for 30 minutes and the CTG reagent was thawed. 75 µL of CTG solution was added to each well for detection, and the plate was shaken on an orbital shaker for 5 minutes to lyse the cells. The cell plate was placed at room temperature for 25 minutes to stabilize the cryo-luminescence signal and the cryo-luminescence value was read (EnVision® multi-plate reader, PerkinElmer#2105).
Data was analyzed using GraphPad Prism software. The dose-response-inhibition equation was used to fit the data to obtain the dose-response curve, and the IC50 value (nM) was calculated accordingly. [formula]

The mark [4] stands for this setting: Homo sapiens, AGS, 72 h, 3 days, CTG, read-out: AGS IC50/nM.

Like-named read-outs stand apart in the source and are kept apart here. A value given as a limit tells only on which side of the number the result lay.

For the compound `CN1CC[C@H](C(F)F)[C@](C)(COc2nc(N3CCOC[C@@](C)(O)C3)c3cc(C(F)(F)F)c(-c4cccc5sc(N)c(C#N)c45)c(F)c3n2)C1` (atropisomer, axis not shown) [Example 5A, (S)-2-amino-4-(2-(((3S,4S)-4-(difluoromethyl)-1,3-dimethylpiperidine-3-yl)methoxy)-8-fluoro-4-((S)-6-hydroxy-6-methyl-1,4-oxazol-4-yl)-6-(trifluoromethyl)quinazoline-7-yl)benzo[b]thiophene-3-carbonitrile], the IC50 was less than 1.5 nM in assay [1] (Homo sapiens, NCI-H727, 120 h); 1.6 nM in assay [2] (setting [4]); 16.5 nM in assay [3].
Take `CN1CC/C(=C\F)[C@](C)(COc2nc(N3CCOC[C@@](C)(O)C3)c3cc(C(F)(F)F)c(-c4cccc5sc(N)c(C#N)c45)c(F)c3n2)C1` (atropisomer, axis not shown) [Example 6A, (S)-2-amino-4-(8-fluoro-2-(((S,E)-4-(fluoromethylene)-1,3-dimethylpiperidine-3-yl)methoxy)-4-((S)-6-hydroxy-6-methyl-1,4-oxazol-4-yl)-6-(trifluoromethyl)quinazoline-7-yl)benzo[b]thiophene-3-carbonitrile]: the IC50 in assay [1] (Homo sapiens, NCI-H727, 120 h) was determined as 1.6 nM; in assay [2] (setting [4]), 4.7 nM; in assay [3], 35.1 nM.
Taken in the same sequence, the figures for `[2H]C([2H])([2H])N1CC/C(=C\F)[C@](C)(COc2nc(N3CCCn4nc(C(=O)N(C)C)cc4C3)c3cc(C(F)(F)F)c(-c4c(F)ccc5sc(N)c(C#N)c45)c(F)c3n2)C1` (atropisomer, axis not shown) [Example 68A] were 2.4 nM, less than 1.5 nM and 41.8 nM.
Taken in the same sequence, the figures for `C[C@H]1CCn2nc(C(=O)N(C)C)cc2CN1c1nc(OC[C@]2(C)CN(C)CC/C2=C\F)nc2c(F)c(-c3cccc4sc(N)c(C#N)c34)c(C(F)(F)F)cc12` (atropisomer, axis not shown) [Example 123A] were less than 1.5 nM, less than 1.5 nM and 33.8 nM.
`CN1CC/C(=C\F)[C@](C)(COc2nc(N3CCCn4nc(C(=O)N(C)C)cc4C3)c3cc(Cl)c(-c4c(F)ccc5sc(N)c(C#N)c45)c(F)c3n2)C1` (atropisomer, axis not shown; (Ra)) [Example 93A, (Ra)-5-(7-(2-amino-3-cyano-5-fluorobenzo[b]thiophene-4-yl)-6-chloro-8-fluoro-2-(((S,E)-4-(fluoromethylene)-1,3-dimethylpiperidine-3-yl)methoxy)quinazoline-4-yl)-N,N-dimethyl-5,6,7,8-tetrahydro-4H-pyrazolo[1,5-a][1,4]diazepine-2-formamide·formate]: the IC50 is 4.1 nM in assay [1]; less than 1.5 nM in assay [2] (3 days, CTG, read-out: AGS IC50/nM); 32.6 nM in assay [3].
Consider `CN1CC/C(=C\F)[C@](C)(COc2nc(N3CCCn4nc(C(=O)N(C)C)cc4C3)c3cc(C(F)(F)F)c(-c4cccc5sc(N)c(C#N)c45)c(F)c3n2)C1` (single isomer, unassigned) [Example 8A], for which the IC50 was determined as 4.4 nM in assay [1] (Homo sapiens, NCI-H727, 120 h); 1.5 nM in assay [2] (setting [4]); 101 nM in assay [3].
As for `CN1CC/C(=C\F)[C@](C)(COc2nc(N3CCCn4nc(C(=O)N(C)C)cc4C3)c3cc(C(F)(F)F)c(-c4c(F)ccc5sc(N)c(C#N)c45)c(F)c3n2)C1` (single isomer, unassigned) [Example 28A], the IC50 was 1.8 nM in assay [1] (Homo sapiens, NCI-H727, 120 h); less than 1.5 nM in assay [2] (setting [4]); 31.2 nM in assay [3].
With `C[C@H]1CCn2nc(C(=O)N(C)C)cc2CN1c1nc(OC[C@]2(C)CN(C)CC/C2=C\F)nc2c(F)c(-c3c(F)ccc4sc(N)c(C#N)c34)c(C3CC3)cc12` (single isomer, unassigned) [Example 162A], the IC50 was 2.1 nM in assay [1] (Homo sapiens, NCI-H727, 120 h); less than 1.5 nM in assay [2] (setting [4]); 82.4 nM in assay [3].
In the case of `CCc1cc2c(N3CCCn4nc(C(=O)N(C)C)c(Cl)c4C3)nc(OC[C@]3(C)CN(C)CC/C3=C\F)nc2c(F)c1-c1c(F)ccc2sc(N)c(C#N)c12` (single isomer, unassigned) [Example 163A], the IC50 is 3.3 nM in assay [1] (Homo sapiens, NCI-H727, 120 h); less than 1.52 nM in assay [2] (Homo sapiens, AGS, 72 h, read-out: AGS IC50/nM, 3 days, CTG); 86.9 nM in assay [3].
On to `CCc1cc2c(N3Cc4cc(C(=O)N(C)C)nn4CC[C@@H]3C)nc(OC[C@]3(C)CN(C)CC/C3=C\F)nc2c(F)c1-c1c(F)ccc2sc(N)c(C#N)c12` (single isomer, unassigned) [Example 164A], for which the IC50 in assay [1] (Homo sapiens, NCI-H727, 120 h) is less than 1.5 nM; in assay [2] (setting [4]), less than 1.5 nM; in assay [3] it was 48 nM.
As for `[2H]C([2H])([2H])N1CC/C(=C\F)[C@](C)(COc2nc(N3Cc4cc(C(=O)N(C)C)nn4CC[C@@H]3C)c3cc(CC)c(-c4c(F)ccc5sc(N)c(C#N)c45)c(F)c3n2)C1` (single isomer, unassigned) [Example 173A], the IC50 in assay [1] (Homo sapiens, NCI-H727, 120 h) was less than 1.5 nM; in assay [2] (setting [4]), less than 1.5 nM; in assay [3], 43.5 nM.
Regarding `[2H]C([2H])([2H])N1CC[C@H](C(F)F)[C@](C)(COc2nc(N3Cc4cc(C(=O)N(C)C)nn4CC[C@@H]3C)c3cc(CC)c(-c4c(F)ccc5sc(N)c(C#N)c45)c(F)c3n2)C1` (single isomer, unassigned) [Example 174A], the IC50 in assay [1] (Homo sapiens, NCI-H727, 120 h) is 2.5 nM; in assay [2] (setting [4]), less than 1.5 nM; in assay [3], 51.9 nM.
In the same order, the values of `CCc1cc2c(N3Cc4cc(C(=O)N(C)C)nn4CC[C@@H]3C)nc(OC[C@]3(C)CN(CC)CC[C@@H]3C(F)F)nc2c(F)c1-c1c(F)ccc2sc(N)c(C#N)c12` (single isomer, unassigned) [Example 176A] are less than 1.5 nM, less than 1.5 nM and 42.6 nM.
As to `[2H]C([2H])([2H])N1CC[C@H](C(F)F)[C@](C)(COc2nc(N3CCOC[C@@](C)(O)C3)c3cc(C(F)(F)F)c(-c4ccc(F)c5sc(N)c(C#N)c45)c(F)c3n2)C1` [Example 55], the IC50 in assay [1] (Homo sapiens, NCI-H727, 120 h) is 2.4 nM; in assay [2] (setting [4]), 13.1 nM; in assay [3], 40.7 nM.
As to `[2H]C([2H])([2H])N1CC[C@H](C(F)F)[C@](C)(COc2nc(N3CCOC[C@@](C)(O)C3)c3cc(C(F)(F)F)c(-c4c(F)ccc5sc(N)c(C#N)c45)c(F)c3n2)C1` [Example 65A], the IC50 was 1.5 nM in assay [2] (setting [4]) and 26.1 nM in assay [3].
Regarding `CCN1CCC(=CF)C(C)(COc2nc(N3Cc4cc(C(=O)N(C)CCF)nn4CCC3C)c3cc(Cl)c(-c4c(F)ccc5sc(N)c(C#N)c45)c(F)c3n2)C1` (stereo not shown) [Example 264A], the IC50 in assay [1] (Homo sapiens, NCI-H727, 120 h) was 2.8 nM; in assay [2] (setting [4]), 2.3 nM.
In the same order, the values of `[2H]C([2H])([2H])N1CC/C(=C\F)[C@](C)(COc2nc(N3Cc4cc(C(=O)NC)nn4CC[C@@H]3C)c3cc(CC)c(-c4c(F)ccc5sc(N)c(C#N)c45)c(F)c3n2)C1` [Example 270A] are 4.9 nM and 3.6 nM.
Take `CCN1CC/C(=C\F)[C@](C)(COc2nc(N3Cc4c(COC)c(C(=O)N(C)C)nn4CC[C@@H]3C)c3cc(Cl)c(-c4ncc(F)c5sc(N)c(C#N)c45)c(F)c3n2)C1` [Example 271A]: the IC50 in assay [1] (Homo sapiens, NCI-H727, 120 h) is 8.7 nM; in assay [2] (setting [4]), 9.3 nM.
In the same order, the values of `CCN1CC[C@H](C(F)F)[C@](C)(COc2nc(N3Cc4c(COC)c(C(=O)N(C)C)nn4CC[C@@H]3C)c3cc(C(F)(F)F)c(-c4ncc(F)c5sc(N)c(C#N)c45)c(F)c3n2)C1` [Example 272A] are 10.4 nM and 12.5 nM.
Taken in the same sequence, the figures for `CCN1CC/C(=C\F)[C@](C)(COc2nc(N3Cc4c(COC)c(C(=O)N(C)C)nn4CC[C@@H]3C)c3cc(Cl)c(-c4c(F)ccc5sc(N)c(C#N)c45)c(OC)c3n2)C1` [Example 273A] were 26.6 nM and 40.6 nM.
For `CCN1CC/C(=C\F)[C@](C)(COc2nc(N3Cc4cc(C(=O)N(C)C)nn4CC[C@@H]3C)c3cc(Cl)c(-c4nccc5sc(N)c(C#N)c45)c(C)c3n2)C1` [Example 276A], the IC50 in assay [1] (Homo sapiens, NCI-H727, 120 h) was found to be 33.4 nM; in assay [2] (setting [4]) it was 18.5 nM.
In the same order, the values of `CCN1CC/C(=C\F)[C@](C)(COc2nc(N3Cc4cc(C(=O)N5CC(F)C5)nn4CC[C@@H]3C)c3cc(Cl)c(-c4c(F)ccc5sc(N)c(C#N)c45)c(F)c3n2)C1` [Example 277A] are 1.8 nM and less than 1.5 nM.

(Values after patent EP4775577A1, “RAS INHIBITOR” (Tyligand Bioscience (Shanghai) Limited, priority 2023, dated 2025).)
